# Source: US9598463B2, “Mucin hypersecretion inhibitors and methods of use” (BIOMARCK PHARMACEUTICALS, LTD., priority 2005, dated 2017)
# Where two headings read alike, the source gives them in different places. Marks after values point to notes of the source that are not given here.
# Legend:
# [1] = test system: methacholine-induced mucin hypersecretion; test: Methacholine-induced mucin hypersecretion in ovalbumin-sensitized mouse model of asthma, BAL mucin ELISA (Balb/C mice); type: in vivo; conditions: for Mucin Secretion % control: Table II, peptides at 100 μM, 50 μL intratracheal 15 min before methacholine; for Mucin Secretion % of control: Table IV
# In short: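 BP2 or Balb/C mice immunized s.c. twice weekly with 1 μg ovalbumin, aerosol ovalbumin challenge after 14 days, then aerosolized methacholine 72 h later. Anti-MUC5AC ELISA on cell-free BAL, minus non-immune antibody signal, normalized to Bradford protein; 6 mice per group.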
# [2] = Qualitative solubility of test peptides in 0.5 N saline; type: physicochemical; conditions: pH 6.5, 20° C. (table title)
# In short: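 Weighed peptide (1 to 5 mg) titrated with 25 μL aliquots of 0.5 N saline, pH 6.5, at 25° C until dissolution judged visually. Solubility calculated from volume needed; complete dissolution in first aliquot reported as greater than, non-dissolution as less than, the calculated value.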
# [3] = Stability of test peptides in human plasma (LC/MS/MS, first order half-life); type: in vitro ADME; conditions: human plasma, 37° C.
# Experimental: Various test peptides in human plasma, human BALF, and CF patient mucus were analyzed to determine the susceptability of the test peptide to proteolysis in the biological fluids. […] The samples were analyzed either on the same day as received or stored at −20° C. and analyzed within the following two days.
# Fresh human blood samples were collected in citrate buffered vacuutrainers (in absence of EDTA or heparin). Red blood cells (RBC) were removed by centrifugation of the blood at 4000×g for 10 min at 4° C. Plasma aliquots (0.9 mL) were then spiked with 0.1 mL of 0.5 mg/mL solution of the test peptide in 75 mM sodium acetate buffer at pH 7.0 and incubated in a water bath maintained at 37° C. Duplicate aliquots of 10 μL, were withdrawn at 5, 15, 30, 60, and 180 minutes intervals and immediately “quenched” with 990 μL of a solution consisting of 50% acetonitrile+50% water containing 0.2% formic acid. The samples were then subjected to liquid chromatography-mass spectrometry (LCMS) analysis.
# All samples were analyzed using LC/MS/MS (MDS/SCIEX, API 4000 Model). Chromatography was performed using a Phenomenex Luna C18 column, while mass spectrometry was performed using positive ion electrospray ionization.
# Calibration standards were analyzed by LCMS at concentrations of 0.100 μg/mL, 1.00 μg/mL, 10.0 μg/mL, and 100 μg/mL for each peptide, with the exception of the calibration standards for peptides myr-PEPTIDE 106, PEPTIDE 106, PEPTIDE 106-NH2, PEPTIDE 106, and cyclic peptide, cyc-PEPTIDE 106, in human mucus, which were analyzed at concentrations of 0.100 μg/mL, 1.00 μg/mL, 10.0 μg/mL, and 75 μg/mL. Standards were prepared in 1% human BALF, plasma, or mucus in 50/50 water/acetonitrile mixture containing 0.2% formic acid. The instrument response values for each set of standards were fit using a 1/(concentration)^2 linear least-squares line. Sample concentrations were calculated using the slope and intercept of this line. Concentrations outside of the calibration range were determined by extrapolating the calibration curve. […]
# For the analysis of peptide concentration in plasma, duplicate calibration standards were analyzed at a concentration of 25 μg/mL and 50 μg/mL for each peptide. The instrument response values for each set of standards were fit through an intercept of 0 using an unweighted, linear least-squares line. Sample concentrations were calculated using the slope and intercept of this line. Concentrations outside of the calibration range were determined by extrapolating the calibration curve.
# Watson fits the log transformed data with a least-squares line to determine parameters such as Cmax (maximum concentration), intercept, rate constant, slope, and T1/2 (half-life). The resulting kinetic parameters were based on the linear fit, not the actual concentration values.
# Time-zero calibration standards in solution were not included as part of the kinetic profiles.
# [4] = 2nd experiment, read-out: Plasma t1/2 (2nd exp.) (converted)
Substance,Mucin Secretion % control [1],solubility [2],"half-life [3, 4]",Mucin Secretion % of control ([1]; peptide 10 μM),Mucin Secretion % of control ([1]; peptide 100 μM),"half-life ([3]; 1st experiment, read-out: Plasma t1/2 (1st exp.) (converted))"
Ac-GAQFSKTAAK-OH [Ac-peptide 106],21.5 % control,> 100 mg/mL,1.8 min,,,
"H-GAQFSKTAAK-OH [peptide 106, GAQFSKTAAK]",33.8 % control,> 70 mg/mL,9 min,64* % of control,40** % of control,16.8 min
